Read-outs that look alike come from different tables or passages of the source.
Key:
[1] = tested on: P. falciparum stage V female gametocytes; assay: P. falciparum female gametocyte activation assay (Pf FGAA), 24 h or 48 h preincubation, Pfs25 expression readout; assay type: cell-based, Plasmodium falciparum NF54; conditions: mean, read-out: Gametocytes mean Pf FGAA IC50
Method: P. falciparum NF54 (originally isolated from an imported malaria case in the Netherlands in the 1980s; BEI Resources, cat. no. MRA-1000) asexual-stage culture was performed as described by Trager and Jensen[37]. Cultures synchronized at the ring stage were used to start gametocyte cultures (day 0) at 1% parasitaemia and 4% haematocrit in 200 ml final volume using culture bottles (Nalgene 3110-42, Thermo Scientific). Complete culture medium (RPMI 1640 supplemented with 25 mM HEPES, 50 μg ml^−1 hypoxanthine, 2 g l^−1 NaHCO3 and 10% pooled human male type A+ serum) was totally replaced daily for 14 days without fresh erythrocyte addition. Human serum was obtained from Interstate Blood Bank, A^+ serotype; no aspirin 2 h before drawing and no antimalarials 2 weeks before drawing. To ensure a stable temperature at 37 °C, which is crucial for gametocyte production and maturation, pre-warmed medium and a slide warmer (XH-2001, Premiere) were used. Under these conditions, parasitaemia reaches a peak of asexual stages on days 4–5, and the first gametocytes are differentiated in culture on day 6. Sexual-stage development was monitored microscopically by Giemsa-stained thin blood smears at day 7 (mainly asexual stages and stages I to III gametocytes) and day 14 (stages IV and V gametocytes).
Cultures showing mainly stage V gametocytes were purified by differential sedimentation as previously reported. The gametocyte concentration was adjusted to plate 8,000 gametocytes per well (100 μl per well) in 384-well poly-D-lysine coated plates (781946, Greiner Bio-One) containing the compounds to test. […] Female gametocyte activation was then triggered by temperature drop and addition of xanthurenic acid (D120804, Sigma) as previously described. To detect female gametes, monoclonal anti-Pfs25 antibody[38] 4B7 (BEI Resources (formerly MR4), cat. no. MRA-315) conjugated to the Cy3 fluorochrome (GE Healthcare) was added to ookinete medium (RPMI 1640 supplemented with 25 mM HEPES, 50 μg ml^−1 hypoxanthine, 2 g l^−1 NaHCO3, 100 μM xanthurenic acid and 20% human serum) at a final concentration of 0.5 μg ml^−1. Activated cultures were then kept at 26 °C for 24 h protected from light, and image acquisition was performed in the Opera High-Content Screening System (PerkinElmer). Using × 10 air objective, five images per well were taken using 532 nm excitation. Images were analysed with a Columbus image data storage and analysis system (PerkinElmer) based on a script specifically designed for this assay that considers size, roundness and intensity of fluorescence of the female activated gametocytes.
Compounds were dissolved in 100% DMSO and dispensed in the 384-well plates using an Echo-CRS liquid handler. Compounds were tested in 2–3 independent experiments. […] Based on that, Z′ factor was calculated for each plate and only those ones with values higher than 0.4 were considered acceptable for data analysis.
Assay performance statistics, such as signal to background ratio, Z′ and robust 3 s.d. activity cut-off were calculated using templates in ActivityBase XE (IDBS, Guilford, Surrey, UK). Hit population analysis and visualization were conducted using Spotfire DecisionSite (Spotfire, Inc., Somerville, MA, USA). The pIC50 (−log IC50) values were obtained using the ActivityBase XE nonlinear regression function in the full curve analysis bundle.

HepG2 cells = assay: HepG2 cytotoxicity assay; assay type: cell-based
Method: After incubation, plates and CellTiter-Glo Reagent (G7571, Promega) were equilibrated at room temperature for 30 min before proceeding to develop the luminescent signal. Using a Multidrop combi dispenser, 25 μl per well of the signal developer were added to the plates and after 10 min at room temperature for stabilization, plates were read on the ViewLux system (Perkin Elmer).

[2] = tested on: P. falciparum asexual blood stages; conditions: read-out: Pf Asexual blood stages XC50, cited from earlier work
[3] = tested on: P. falciparum stages IV–V gametocytes; assay: Gametocytocidal ATP-depletion assay (gametocyte ATP bioluminescence); assay type: cell-based, Plasmodium falciparum
Method: In parallel, the set of confirmed hits from the Pf FGAA screen was cross-compared in the gametocyte ATP-depletion assay, at 2 μM single concentration (Supplementary Data 1). This assay monitors ATP levels as surrogate of gametocyte viability.
‘Viability' of mature gametocytes was determined using the gametocyte ATP bioluminiscence assay. Briefly, stages IV–V gametocyte cultures were double-purified by differential sedimentation followed by magnetic isolation. Then, parasites (50 μl per well containing 12,500 gametocytes) were added to compound pre-dispensed 384-well plates (781091, Greiner Bio-One) and incubated at 37 °C for 48 h (3% O2, 5% CO2 and 92% N2). BacTiter-Glo kit (G8231, Promega) was used to determine the ATP levels of ‘live' parasites according to the manufacturer's instructions. After reagent addition (50 μl per well), luminescence of the plates was measured using a microplate reader (HTS counter Victor, Wallac).

[4] = P. falciparum female gametocytes
[5] = TCAMS asexual blood stage data, ref 1 (Gamo, F. J. et al., Nature 465, 305-310, 2010)
[6] = TCAMS data, ref 1 (Gamo et al., 2010)
[7] = P. falciparum female gametocyte activation assay

| Compound | IC50 [1, 4] | HepG2 cells mean TOX50 (HepG2 cells; HepG2 cells; mean) | IC50 [2, 5] | Gametocytes mean ATP inhibition at 2µM [3] | IC50 [1] | HepG2 cells mean TOX50 (HepG2 cells; mean) | IC50 [2, 6] | Gametocytes mean ATP inhibition at 2µM (%) [3] | other results |
| --- | --- | --- | --- | --- | --- | --- | --- | --- | --- |
| CC(C)c1ccc(CN2CCC(CNC(=O)c3cc(-c4cccc(F)c4)cs3)C2)cc1.O=C(O)C(F)(F)F (stereo not drawn) [TCMDC-134437] | 1370 nM | 6.24 µM | 1660 nM | 7.50% | – | – | – | – | – |
| C=C[C@H]1CN(CCCCCCC)CC[C@H]1CCNc1ccnc2ccc(OC)cc12 [TCMDC-139204] | – | – | – | – | 1800 nM | 2.24 µM | 60 nM | 31.13% | – |
| CCn1c(Sc2ccc([N+](=O)[O-])c(C#N)c2)nnc1-c1cccc(Cl)c1 [TCMDC-135234] | 1340 nM | 18.80 µM | 870 nM | 46.72% | – | – | – | – | – |
| Nc1nc(N)c2cc(NC(=O)c3ccc(Cl)c(Cl)c3)ccc2n1 [TCMDC-141982] | – | – | 150 nM | 1.96% | – | – | – | – | IC50 [1, 7]: 1590 nM; HepG2 cells mean TOX50 (HepG2 cells; mean; HepG2 cells): 2.14 µM |
| CCc1c(CCNCCCCCCNC(C)Cc2ccc3c(c2CC)OCO3)ccc(OC)c1OC.Cl (stereo not drawn) [TCMDC-132052] | 480 nM | 2.46 µM | 870 nM | 35.74% | – | – | – | – | – |
| CCCCCCOc1ccc2ccccc2c1CNCCCCCCNCc1c(OCCCCCC)ccc2ccccc12.CS(=O)(=O)O [TCMDC-137963] | – | – | – | – | 1500 nM | 2.40 µM | 1060 nM | 77.54% | – |
| COc1ccc(NC(=O)c2cccc(Br)c2)cc1N1CCN(CCCCCCCN2CCN(c3cc(NC(=O)c4cccc(Br)c4)ccc3OC)CC2)CC1.Cl [TCMDC-139020] | – | – | – | – | 1060 nM | 6.03 µM | 180 nM | -4.19% | – |
| CN1CCCC1CCNCc1cccc(-c2cnc(N3CCCC(C)(C)C3)nc2)c1 (stereo not drawn) [TCMDC-133144] | 1670 nM | 4.63 µM | 930 nM | 3.15% | – | – | – | – | – |
| C[C@H](Cc1ccc(OCCCCCOc2ccc(C[C@@H](C)NC[C@H](O)c3cccc(Cl)c3)cc2)cc1)NC[C@H](O)c1cccc(Cl)c1.Cl [TCMDC-131563] | 960 nM | 2.11 µM | 190 nM | 21.40% | – | – | – | – | – |
| CN(CCCNCc1ccc2ccccc2c1)CCCNCc1ccc2ccccc2c1.Cl [TCMDC-137908] | – | – | – | – | 90 nM | 5.01 µM | 390 nM | 72.34% | – |
| CC[C@H]1CN2CCc3cc(OC)c(OC)cc3[C@@H]2C[C@@H]1C[C@H]1NCCc2cc(OC)c(OC)cc21 [TCMDC-125531] | – | 9.77 µM | 210 nM | – | – | – | – | – | IC50 ([1]; Plasmodium falciparum, P. falciparum female gametocytes): 2730 nM; inhibition at 2 µM ([3]; Plasmodium falciparum, mean): 56% |
| CCCC(=O)NC(c1ccc(C(C)C)cc1)c1ccc2cccnc2c1O (stereo not drawn) [TCMDC-123884] | 1540 nM | >100 µM | 930 nM | 63.50% | – | – | – | – | – |
| COc1ccc2ccccc2c1CNCCCCCCNCc1c(OC)ccc2ccccc12.Cl [TCMDC-137915] | – | – | – | – | 700 nM | 4.22 µM | 710 nM | 20.95% | – |
| c1ccc(-c2nc(Nc3nc4ccccc4[nH]3)[nH]c2-c2ccccc2)cc1 [TCMDC-139099] | – | – | – | – | 580 nM | 10.98 µM | 620 nM | 51.90% | – |
| Cl.c1ccc2c(NCCCCCCCCNc3ccnc4ccccc34)ccnc2c1 [TCMDC-137751] | – | – | – | – | 1020 nM | 1.15 µM | 160 nM | 39.31% | – |
| COc1cc(-c2cc(-c3ccc(S(C)(=O)=O)cc3)cnc2N)ccc1O [TCMDC-133343] | 390 nM | 41.69 µM | 100 nM | 57.72% | – | – | – | – | – |
| CCCN(CC1CC1)c1ncc(-c2cccc(CNCCC3CCCN3C)c2)cn1 (stereo not drawn) [TCMDC-133142] | 2180 nM | 3.09 µM | 750 nM | 6.70% | – | – | – | – | – |
| Cc1cc(Nc2ncc(C#N)c(Nc3ccccc3C(N)=O)n2)ccc1N1CCN(C)CC1.Cl [TCMDC-134115] | 1670 nM | 0.40 µM | 9 nM | 20.18% | – | – | – | – | – |
| CC(C)(C)c1ccc(CN2CCC(CNC(=O)c3cc(-c4cccc(Cl)c4)cs3)C2)cc1.O=C(O)C(F)(F)F (stereo not drawn) [TCMDC-134446] | 990 nM | 7.42 µM | 1160 nM | -13.17% | – | – | – | – | – |
| CN(C)CCCOc1ccc(CN2CCC(c3c[nH]c4ccc(NCC5CCCCC5)cc34)CC2)cc1.O=C(O)C(F)(F)F [TCMDC-140737] | – | – | – | – | 560 nM | 5.48 µM | 680 nM | -13.51% | – |
| CC(CO)(CO)NCc1cc2c3ccccc3c(CNC(C)(CO)CO)cc2c2ccccc12.CS(=O)(=O)O [TCMDC-137752] | – | – | – | – | 4420 nM | 7.33 µM | 720 nM | 71.86% | – |
| CC(C)(C)c1ccc(CNC(=O)/C=C/c2ccc(CNC3CCNCC3)cc2)cc1 [TCMDC-140773] | – | – | – | – | 1920 nM | 9.47 µM | 1090 nM | 8.96% | – |
| COc1ccc2cc(CNCCCCCCNCc3ccc4cc(OC)ccc4c3)ccc2c1.CS(=O)(=O)O [TCMDC-137797] | – | – | – | – | 590 nM | 1.55 µM | 620 nM | 35.46% | – |
| Cl.N=C1C=C(N)C(=O)c2ccccc21 [TCMDC-141992] | – | – | 1050 nM | 55.55% | – | – | – | – | IC50 [1, 7]: 11900 nM; HepG2 cells mean TOX50 (HepG2 cells; mean; HepG2 cells): 0.52 µM |
| c1ccc(C23N=C(Nc4nc5ccccc5[nH]4)NC2(c2ccccc2)NC(Nc2nc4ccccc4[nH]2)=N3)cc1 (stereo not drawn) [TCMDC-139082] | – | – | – | – | 140 nM | 58.90 µM | 280 nM | 65.26% | – |
| CC(CNC(=N)c1cccc(C(=N)NCC(C)Oc2cccc(C3CCCCC3)c2)n1)Oc1cccc(C2CCCCC2)c1.Cl (stereo not drawn) [TCMDC-137455] | – | – | – | – | 1270 nM | 2.16 µM | 920 nM | 92.56% | – |
| CC(C)(C)c1ccc(-c2cc3c(ccc4nc(N)nc(N)c43)[nH]2)cc1 [TCMDC-137977] | – | – | – | – | 770 nM | 1.86 µM | 110 nM | 65.65% | – |
